Source: ChEMBL document CHEMBL5543078, “Peptidomimetics as potent dual SARS-CoV-2 cathepsin-L and main protease inhibitors: In silico design, synthesis and pharmacological characterization” (Eur J Med Chem, 2024)
Activity calls are given as the source filed them. The rule behind the calls is not given here. Non-standard residues stand in square brackets, D forms with d. Residues, ends and D or L forms follow the SMILES beside them. *: point of attachment. AllylGly = C=CC[C@H](N)C(=O)O; Acryloyl = C=CC(=O)*; NHBn = c1ccc(CN*)cc1; ClAc = O=C(CCl)*

Assays:
[1] = molecular target: Replicase polyprotein 1ab (Severe acute respiratory syndrome coronavirus 2, UniProt P0DTD1); assay: Inhibition of recombinant SARS-CoV-2 main protease using DABCYL-KTSAVLQSGFRKME-EDANS as fluorescent substrate preincubated for 30 mins followed by substrate addition by FRET assay
[2] = Cytotoxicity against African green monkey Vero cells assessed as change in cell morphology by measuring minimum cytotoxic concentration by microscopic analysis; assay type: toxicity, cell-based; settings: chlorocebus sabaeus
Human coronavirus 229E = assay type: functional, organism-based
Human coronavirus OC43 = assay type: functional, organism-based
SARS-CoV-2 [3] = assay: microbe, parasite or virus in culture; settings: Severe acute respiratory syndrome coronavirus 2, Wuhan/WIV04/2020, Vero
Description: Antiviral activity against SARS-CoV-2 Wuhan/WIV04/2020 infected in African green monkey Vero cells assessed as reduction in virus-induced cytopathic effect incubated for 6 to 7 days by microscopic analysis

SARS-CoV-2 [4] = assay: microbe, parasite or virus in culture; settings: Severe acute respiratory syndrome coronavirus 2, NVDBB-2220 (Alpha), Vero
Description: Antiviral activity against SARS-CoV-2 NVDBB-2220 (Alpha) infected in African green monkey Vero cells assessed as reduction in virus-induced cytopathic effect incubated for 6 to 7 days by microscopic analysis

SARS-CoV-2 [5] = assay: microbe, parasite or virus in culture; settings: Severe acute respiratory syndrome coronavirus 2, 860-J1 (Delta), Vero
Description: Antiviral activity against SARS-CoV-2 860-J1 (Delta) infected in African green monkey Vero cells assessed as reduction in virus-induced cytopathic effect incubated for 6 to 7 days by microscopic analysis

SARS-CoV-2 [6] = assay: microbe, parasite or virus in culture; settings: Severe acute respiratory syndrome coronavirus 2, Omicron B1.1.529, Vero
Description: Antiviral activity against SARS-CoV-2 Omicron B1.1.529 infected in African green monkey Vero cells assessed as reduction in virus-induced cytopathic effect incubated for 6 to 7 days by microscopic analysis

[7] = Stability in simulated gastric fluid assessed as parent compound remaining incubated upto 120 mins by LC-MS analysis; assay type: ADME; settings: read-out: Stability
[8] = Stability in simulated intestinal fluid assessed as parent compound remaining incubated upto 120 mins by LC-MS analysis; assay type: ADME; settings: read-out: Stability
[9] = Metabolic stability in human liver microsomes assessed as half life incubated upto 60 mins in presence of NADPH by LC-MS analysis; assay type: ADME, Microsome
[10] = Metabolic stability in human liver microsomes assessed as half life incubated upto 60 mins in presence of NADPH and UDPGA by LC-MS analysis; assay type: ADME, Microsome
[11] = Metabolic stability in human liver microsomes assessed as intrinsic clearance incubated upto 60 mins in presence of NADPH by LC-MS analysis; assay type: ADME, Microsome; settings: read-out: CLH
Procathepsin L = Procathepsin L (Homo sapiens, UniProt P07711); assay: Inhibition of Cathepsin L (unknown origin) using Z-Leu-Arg-AMC fluorometric dipeptide as substrate peincubated for 10 mins followed by substrate addition by fluorescence based assay
Procathepsin L, sequence (P07711 whole entry): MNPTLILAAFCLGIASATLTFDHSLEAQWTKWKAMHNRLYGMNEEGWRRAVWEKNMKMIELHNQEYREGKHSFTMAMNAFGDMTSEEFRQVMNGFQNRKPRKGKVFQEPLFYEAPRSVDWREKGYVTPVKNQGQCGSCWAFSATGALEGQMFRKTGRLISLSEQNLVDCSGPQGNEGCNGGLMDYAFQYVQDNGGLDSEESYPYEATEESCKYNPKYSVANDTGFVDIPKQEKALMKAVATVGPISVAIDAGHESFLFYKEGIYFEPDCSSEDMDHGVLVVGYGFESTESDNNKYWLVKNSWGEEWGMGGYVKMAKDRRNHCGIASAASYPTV

| SMILES | IC50 [1] | MCC [2] | Activity (Human coronavirus 229E) | Activity (Human coronavirus OC43) | EC50 (SARS-CoV-2 [3]) | EC50 (SARS-CoV-2 [4]) | EC50 (SARS-CoV-2 [5]) | EC50 (SARS-CoV-2 [6]) | remaining at 2 h [7] | remaining at 2 h [8] | half-life [9] | half-life [10] | CLint scaled [11] | IC50 (Procathepsin L) |
| --- | --- | --- | --- | --- | --- | --- | --- | --- | --- | --- | --- | --- | --- | --- |
| C=CC[C@H](NC(=O)CCl)C(=O)N[C@@H](CC=C)C(=O)N[C@H](CNCc1ccccc1)Cc1c[nH]c2ccccc12 | > 30 µM | > 100 µM | Active | Active | 4.29 µM | 2.53 µM | 18.1 µM | 15.2 µM | – | – | – | – | – | – |
| O=C(CS)N[C@@H](Cc1ccccc1)C(=O)N[C@@H](Cc1c[nH]c2ccccc12)C(=O)NCc1ccccc1 | > 30 µM | > 100 µM | Active | Active | > 100 µM | > 100 µM | > 100 µM | > 100 µM | – | – | – | – | – | – |
| C=CC[C@H](NC(=O)CCl)C(=O)N[C@@H](Cc1c[nH]c2ccccc12)C(=O)NCCN1CCOCC1 | > 30 µM | > 100 µM | Active | Active | 10.3 µM | 10.7 µM | 29.2 µM | 13.5 µM | – | – | – | – | – | – |
| CC(C)C[C@H](NC(=O)CCl)C(=O)N[C@H](Cc1c[nH]c2ccccc12)C(=O)NCc1ccccc1 | 14.6 µM | > 100 µM | Active | Active | 8.71 µM | > 20 µM | > 20 µM | > 20 µM | – | – | – | – | – | – |
| CC(C)C[C@@H](C(=O)NCC12CC3CC(CC(C3)C1)C2)N(Cc1ccccc1)C(=O)CCl | > 30 µM | 19 µM | Active | Active | > 4 µM | > 4 µM | > 4 µM | > 4 µM | – | – | – | – | – | – |
| CC(C)C[C@H](NC(=O)CCl)C(=O)N[C@@H](Cc1c[nH]c2ccccc12)C(=O)NCc1ccccc1 | 2.81 µM | > 100 µM | Active | Active | 0.27 µM | 0.32 µM | 1.2 µM | 1.28 µM | > 80% | > 80% | 29.7 min | 21.1 min | > 45 mL/min/kg | – |
| C=CC(=O)N[C@@H](CC(C)C)C(=O)N[C@@H](Cc1c[nH]c2ccccc12)C(=O)NCc1ccccc1 | > 30 µM | > 100 µM | Active | Active | > 100 µM | > 100 µM | > 100 µM | > 100 µM | – | – | – | – | – | – |
| CCN(CC)CCCC(C)Nc1ccnc2cc(Cl)ccc12 (stereo not given) | – | – | Active | Active | – | – | – | – | – | – | – | – | – | – |
| NC(=O)c1ncn([C@@H]2O[C@H](CO)[C@@H](O)[C@H]2O)n1 | – | – | Active | Active | – | – | – | – | – | – | – | – | – | – |
| C=CC(=O)N[C@@H](Cc1ccccc1)C(=O)N[C@@H](Cc1c[nH]c2ccccc12)C(=O)NCc1ccccc1 (Acryloyl-Phe-Trp-NHBn) | > 30 µM | > 100 µM | Active | Active | > 20 µM | > 20 µM | > 20 µM | > 20 µM | – | – | – | – | – | > 30 µM |
| O=C(CCl)NCC(=O)N[C@@H](Cc1c[nH]c2ccccc12)C(=O)NCc1ccccc1 (ClAc-Gly-Trp-NHBn) | > 30 µM | > 100 µM | Active | Active | 0.16 µM | 0.3 µM | 0.54 µM | 0.81 µM | > 80% | > 80% | 346 min | 122 min | < 15 mL/min/kg | – |
| CC(C)C[C@H](NC(=O)CCl)C(=O)N[C@@H](Cc1ccccc1)C(=O)N[C@@H](Cc1c[nH]c2ccccc12)C(=O)NCc1ccccc1 (ClAc-Leu-Phe-Trp-NHBn) | > 30 µM | > 100 µM | Active | Active | 4.81 µM | > 20 µM | > 20 µM | > 100 µM | – | – | – | – | – | – |
| COC(=O)[C@H](CCC(N)=O)NC(=O)[C@H](Cc1c[nH]c2ccccc12)NC(=O)[C@H](CC(C)C)NC(=O)CCl (ClAc-Leu-Trp-Gln-OMe) | > 30 µM | > 100 µM | Active | Active | > 100 µM | > 100 µM | > 100 µM | > 100 µM | – | – | – | – | – | – |
| O=C(CCl)N[C@@H](Cc1ccccc1)C(=O)N[C@@H](Cc1c[nH]c2ccccc12)C(=O)NCc1ccccc1 (ClAc-Phe-Trp-NHBn) | 0.73 µM | > 100 µM | Active | Active | 0.09 µM | 0.68 µM | 1.3 µM | 1.34 µM | > 80% | > 80% | 38.3 min | 19.6 min | > 45 mL/min/kg | – |
| COC(=O)[C@H](CC(C)C)NC(=O)[C@H](Cc1c[nH]c2ccccc12)NC(=O)CCl (ClAc-Trp-Leu-OMe) | > 30 µM | 21 µM | Active | Active | > 4 µM | > 20 µM | > 20 µM | > 4 µM | – | – | – | – | – | – |
| O=C(CCl)N[C@@H](Cc1ccc(O)cc1)C(=O)N[C@@H](Cc1c[nH]c2ccccc12)C(=O)NCc1ccccc1 (ClAc-Tyr-Trp-NHBn) | 8.35 µM | > 100 µM | inactive | inactive | 2.37 µM | 3.46 µM | 12.3 µM | 5.04 µM | – | – | – | – | – | – |
| C=CC[C@H](NC(=O)CCl)C(=O)N[C@@H](Cc1c[nH]c2ccccc12)C(=O)NCc1ccccc1 (ClAc-[AllylGly]-Trp-NHBn) | 1.72 µM | > 100 µM | Active | Active | 0.49 µM | 1.16 µM | 2.12 µM | 5.87 µM | – | – | – | – | – | – |
| CCOC(=O)[C@H]1O[C@@H]1C(=O)N[C@@H](CC(C)C)C(=O)NCCC(C)C [ALOXISTATIN] | – | – | Active | Active | – | – | – | – | – | – | – | – | – | 0.034 µM |
| CC(C)C(=O)OC[C@H]1O[C@@H](n2ccc(NO)nc2=O)[C@H](O)[C@@H]1O [MOLNUPIRAVIR] | – | > 100 µM | – | – | 4.31 µM | 5.44 µM | 6.04 µM | 1.22 µM | – | – | – | – | – | – |
| CCC(CC)COC(=O)[C@H](C)N[P@](=O)(OC[C@H]1O[C@@](C#N)(c2ccc3c(N)ncnn23)[C@H](O)[C@@H]1O)Oc1ccccc1 [REMDESIVIR] | – | > 40 µM | Active | Active | 3.74 µM | 2.93 µM | 3.74 µM | 0.83 µM | – | – | – | – | – | – |
